Experimental data published in patent publication US8129397B2, “Substituted thieno[2,3-d]pyrimidines as AMPA modulators” (MSD Oss B.V., priority 2007, dated 2012).

Columns and labels:
[1] = target: T1, AMPA (GluR1) receptor (Homo sapiens, UniProt P42261); test: Ca2+ influx fluorescence assay (FLEXstation, HEK.GluR1(i) cells); assay type: cell-based; conditions: Ca2+ influx in the presence of glutamate, Fluo-3, read-out: EC50, positive modulation of the AMPA receptor
T1 construct: expressed in transfected cells; host or cells: HEK cells (HEK.GluR1(i)), kept under hygromycin selection
Text: A: Ca^2+ Influx Fluorescence Assays
The compounds in this invention may be tested using a biological assay which measures Ca^2+ influx mediated through positive modulation of the AMPA (GluR1) receptor using standard techniques in the art such as, but not limited to, a FLEXstation (manufactured by Molecular Devices, Sunnyvale, Calif.). An optical readout using fluorescent probes is employed to measure ion channel dependent changes in intracellular ion concentration or membrane potential. The assay utilises the Ca^2+ conductance of functional homomeric GluR1(i) AMPA receptors to generate glutamate-dependent Ca^2+ responses. Influx of Ca^2+ through the ion channel is measured indirectly through an increase in intracellular Ca^2+ levels using the calcium sensitive dye such as, but not limited to, Fluo-3 (Molecular Devices, Sunnyvale, Calif.) in FLEXstation. A positive AMPA receptor modulator, in the presence of glutamate, will result in an influx of Ca^2+ through the ion channel which can be measured indirectly through an increase in intracellular Ca^2+ levels using the calcium sensitive dye Fluo-3 in FLEXstation.
HEK.GluR1(i) cells were maintained in DMEM supplemented with 10% fetaclone II, 1% non-essential amino acids and 150 μg/mL hygromycin, at 37° C./5% CO2. […]

[2] = system: postnatal rat cortical neurones; test: Whole cell patch clamp recording of glutamate-evoked currents; assay type: cell-based; conditions: at 10 μM compound, glutamate 0.5 mM, holding potential −60 mV
Procedure: B: Patch Clamp Recording.
The whole cell configuration of the patch clamp technique (Hamill et al., Pflugers Arch. 1981, […], 85-100) was used to measure glutamate-evoked currents from postnatal rat cortical neurones. A glass coverslip containing the culture was transferred to the recording chamber (Warner Instrument Corp., Hamden, Conn.) mounted on the stage of an inverted microscope (Nikon, Kingston, UK). The recording chamber contained 1-2 ml extracellular solution (145 mM NaCl, 5.4 mM KCl, 10 mM HEPES, 0.8 mM MgCl2, 1.8 CaCl2, 10 mM glucose and 30 mM sucrose, adjusted to pH 7.4 with 1M NaOH) and was constantly perused at a rate of 1 ml/min. Recordings were performed at room temperature (20-22° C.) using an Axopatch 200B amplifier (Axon Instruments Ltd., Foster City, Calif.). Data acquisition and analysis was performed using Signal software (Cambridge Electronic Design Ltd., Cambridge, UK). Pipettes were manufactured from GC120F-10 glass (Harvard Apparatus, Edenbridge UK) using a model P-87 electrode puller (Sutter Instruments Co., Novarto, Calif.). The patch electrodes had typical resistances of between 3-5 MQ when filled with intracellular solution (140 mM potassium gluconate, 20 mM HEPES, 1.1 mM EGTA, 5 mM phosphocreatine, 3 mM ATP, 0.3 mM GTP, 0.1 mM Caca2, 5 mM MgCl2, adjusted to pH 7.4 with 1M KOH). […]

T1 sequence (P42261 19-906 isoform P42261-2 limits assumed, species assumed): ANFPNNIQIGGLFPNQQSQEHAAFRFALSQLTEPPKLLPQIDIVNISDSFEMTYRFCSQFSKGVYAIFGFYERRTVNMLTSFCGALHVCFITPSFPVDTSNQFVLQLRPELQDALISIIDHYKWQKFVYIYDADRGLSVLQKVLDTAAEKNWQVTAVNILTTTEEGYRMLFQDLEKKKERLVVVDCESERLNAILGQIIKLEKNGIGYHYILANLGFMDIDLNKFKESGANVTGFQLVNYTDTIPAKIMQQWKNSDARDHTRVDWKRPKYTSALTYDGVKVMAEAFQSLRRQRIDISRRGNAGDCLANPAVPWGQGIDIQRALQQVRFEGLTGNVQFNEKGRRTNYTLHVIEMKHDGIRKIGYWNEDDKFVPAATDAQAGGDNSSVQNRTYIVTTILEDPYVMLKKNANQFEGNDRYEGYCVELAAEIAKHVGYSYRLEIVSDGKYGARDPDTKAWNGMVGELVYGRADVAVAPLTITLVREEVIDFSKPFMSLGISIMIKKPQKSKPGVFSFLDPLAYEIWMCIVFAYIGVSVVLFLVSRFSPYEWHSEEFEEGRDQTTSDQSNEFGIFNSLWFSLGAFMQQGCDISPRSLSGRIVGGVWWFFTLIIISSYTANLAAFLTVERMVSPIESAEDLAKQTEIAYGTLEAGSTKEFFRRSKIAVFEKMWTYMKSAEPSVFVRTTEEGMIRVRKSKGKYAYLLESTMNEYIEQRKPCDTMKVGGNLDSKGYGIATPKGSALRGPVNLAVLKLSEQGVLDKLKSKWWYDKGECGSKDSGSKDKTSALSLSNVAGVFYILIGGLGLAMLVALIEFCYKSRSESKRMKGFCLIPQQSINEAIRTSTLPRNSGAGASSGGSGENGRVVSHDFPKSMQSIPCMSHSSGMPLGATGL

EC50 [1]: 1000 nM
Compound: Cc1cc2c(=O)[nH]c(Cn3cc(CNCc4nccs4)c(C(F)(F)F)n3)nc2s1 [Example 1, 6-Methyl-2-((4-((thiazol-2-ylmethylamino)methyl)-3-(trifluoromethyl)-1H-pyrazol-1-yl)methyl)thieno[2,3-d]pyrimidin-4(3H)-one]
percentage increase in steady state current [2]: 235±44%
